Test [1] deals with P. aeruginosa MPAO1-P2. Put plainly: Antibiotic resistance of P2 strain. Format: cell-based, Pseudomonas aeruginosa. The note with it: for fold higher resistance of P2 strain compared to P1 strain: P2 vs P1. How it is done: FIG. 11. Chloramphenicol resistance of P1 and P2 strains. Strains were cultured in TSB containing 250 μg/ml chloramphenicol and grown in 96-well plate (150 μl/well, shaking at 150 rpm, 37° C. Cell density was measured on Plate Reader at OD 600 nm. Values represent the mean of triplicate cultures.

Test [2] concerns P. aeruginosa MPAO1-P1. Put plainly: Antibiotic resistance of P1 strain. Format: cell-based. The following applies: Pseudomonas aeruginosa, MPAO1P1.

Converted amounts (≈) assume the structure as drawn.

As a reminder, the MIC is the smallest concentration in the dilution series that meets the test's criterion for growth inhibition. A low value points to inhibition by little substance.

On to `O=C(N[C@H](CO)[C@H](O)c1ccc([N+](=O)[O-])cc1)C(Cl)Cl` [chloramphenicol], for which the “fold higher resistance of P2 strain compared to P1 strain” value in test [1] was “about 6 fold”.
Consider `CCn1cc(C(=O)O)c(=O)c2cc(F)c(N3CCNCC3)cc21` [norfloxacin], for which the MIC in test [2] turned out to be 0.38 µg/mL (≈ 1.19 µM); in test [1] (Pseudomonas aeruginosa, MPAO1P2, P2 strain), 3.8 µg/mL (≈ 11.9 µM). For the same compound, the “fold higher resistance of P2 strain compared to P1 strain” value in test [1] was 10 fold.
